According to paper PMC5816626, “A multitarget approach to drug discovery inhibiting Mycobacterium tuberculosis PyrG and PanK” (Scientific Reports, 2018):
≈ marks a conversion by molar mass, not a printed value. Entries after “also recorded” stand apart in the source; their conditions may differ.

Assays:
M. tuberculosis H37Ra = experiment: microbe, parasite or virus in culture; type: cell-based; conditions: Mycobacterium tuberculosis, read-out: Growth inhibition at harvest (OD600)
M. tuberculosis = test system: M. tuberculosis; set-up: method as in PMID 26097035, PMID 28475832; conditions: known antitubercular activity; cited from earlier work
[1] = target: M. tuberculosis PanK wild type (Mycobacterium tuberculosis, UniProt P9WPA7); experiment: biochemical
M. tuberculosis PyrG = test system: M. tuberculosis PyrG; set-up: method as in PMID 26097035, PMID 28475832; conditions: previously identified PyrG inhibitors; cited from earlier work
M. tuberculosis H37Rv = experiment: MIC against M. tuberculosis H37Rv (wild type); type: cell-based; conditions: Mycobacterium tuberculosis; strain H37Rv
M. tuberculosis PanK = M. tuberculosis PanK (Mycobacterium tuberculosis, UniProt P9WPA7); experiment: PanK activity during incubation with prodrug and EthA; type: biochemical; conditions: 8 hours of incubation with EthA and NADPH, compound 0.3 mM
human cell lines = test system: human cell lines; set-up: method as in PMID 26097035; conditions: cited from earlier work

Sequence of M. tuberculosis PanK wild type (P9WPA7 whole entry): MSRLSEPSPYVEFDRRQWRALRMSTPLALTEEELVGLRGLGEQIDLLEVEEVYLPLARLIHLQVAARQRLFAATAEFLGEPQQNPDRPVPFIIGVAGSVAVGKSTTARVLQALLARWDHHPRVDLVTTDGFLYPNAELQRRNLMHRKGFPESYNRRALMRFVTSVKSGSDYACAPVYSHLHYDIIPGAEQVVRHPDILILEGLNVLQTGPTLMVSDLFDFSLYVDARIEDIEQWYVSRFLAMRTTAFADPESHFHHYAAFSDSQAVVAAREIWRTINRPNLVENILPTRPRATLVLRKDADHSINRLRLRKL
Sequence of M. tuberculosis PanK (P9WPA7 whole entry): as above

SMILES	inhibition at 0.2 µg/mL (M. tuberculosis H37Ra)	MIC (M. tuberculosis)	IC50 [1]	IC50 (M. tuberculosis PyrG)	MIC (M. tuberculosis H37Rv)	further results
C[C@H]1COC2(CCN(c3nc(=O)c4cc(C(F)(F)F)cc([N+](=O)[O-])c4s3)CC2)O1 [BTZ043, reference compound]	23%					
O=C(CN1CCN(Cc2ccccc2)CC1)Nc1ccc([N+](=O)[O-])cc1C(=O)c1ccccc1 [CDD-823953, N-(2-benzoyl-4-nitrophenyl)-2-(4-benzylpiperazin-1-yl)acetamide]		4.39 µM (≈ 2.01 µg/mL)	250 µM	80 µM		
COc1ccc(-c2nnc(SCC(=O)Nc3ccc([N+](=O)[O-])cc3)o2)cc1 [CDD-934506, 2-((5-(4-methoxyphenyl)-1,3,4-oxadiazol-2-yl)sulfanyl)-N-(4-nitrophenyl)acetamide]		0.87 µM (≈ 0.336 µg/mL)	40 µM			PyrG IC50 (M. tuberculosis PyrG): inactive; also recorded: n. i
CCc1cc(C(N)=S)ccn1 [Ethionamide, reference compound]					1 µg/mL (≈ 6.02 µM)	
c1ccc(-c2csc(Nc3nc4cc5c(cc4s3)OCO5)n2)nc1 [GSK735826A, N-(4-(pyridin-2-yl)thiazol-2-yl)-(1,3)dioxolo(4′,5′:4,5)benzo(1,2-d)thiazol-6-amine]	66%	2.7 µM (≈ 0.957 µg/mL)	70 µM	22 µM		Ki ([1]; competitive inhibitor towards the ATP binding site): 65.3 ± 4.33 µM
O=C(COc1cccc(F)c1)Nc1nc(-c2ccccn2)cs1 [GSK920684A, 2-(3-fluorophenoxy)-N-(4-(pyridin-2-yl)thiazol-2-yl)acetamide]	26%			22 µM		PanK IC50 [1]: n. i.
O=C(Cc1ccc(F)cc1)Nc1nc(-c2ccccn2)cs1 [GSK1570606A, 2-(4-fluorophenyl)-N-(4-(pyridin-2-yl)thiazol-2-yl)acetamide]	37%	9.3 µM (≈ 2.91 µg/mL)		4.2 µM		PanK IC50 [1]: n. i.
O=C(CCc1ccccc1)NC(=S)Nc1ccc(N2CCCCC2)cc1 [compound 7904688, 3-phenyl-N-[(4-piperidin-1-ylphenyl)carbamothioyl]propanamide]					0.5 µg/mL (≈ 1.36 µM)	loss of PanK activity (M. tuberculosis PanK): more than 90%; toxicity against human cell lines (human cell lines): very low toxicity
Cc1ccc(C(=O)Nc2ccc([N+](=O)[O-])cc2)s1 [compound 7947882, 5-methyl-N-(4-nitrophenyl)thiophene-2-carboxamide]					0.5 µg/mL (≈ 1.91 µM)	loss of PanK activity (M. tuberculosis PanK): more than 90%; toxicity against human cell lines (human cell lines): very low toxicity
CC1=CC=C(C(=O)Nc2ccc([N+](=O)[O-])cc2)S1(=O)=O [compound 11426026]	83%				1 µg/mL (≈ 3.4 µM)	
